# Results as given in patent US9492495B2, “Therapeutic use of agonists or antagonists of bradykinin receptor 1 or 2, for modulation collateral blood vessel growth” (MAX-DELBRUECK-CENTRUM FUER MOLEKULARE MEDIZIN, priority 2010, dated 2016).
# Experiments:
# [1] = tested on: cerebral arteriogenesis (posterior cerebral artery collateral pathway); test: 3-vessel occlusion (3-VO) cerebral arteriogenesis model: collateral growth / posterior cerebral artery diameter; assay type: in vivo, rat; conditions: for arteriogenesis (collateral growth) / cerebral arteriogenesis: rat 3-VO model; for arteriogenesis (collateral growth): antagonist treatment, 3 weeks post 3-VO (FIG. 5); for artery diameter changes (posterior cerebral artery) / collateral arterial growth: rat 3-VO, 3 weeks; for artery diameter changes (posterior cerebral artery): compared with untreated controls; for collateral arterial growth: ipsilateral and contralateral collateral pathways (FIGS. 5B and 5C); for cerebral arteriogenesis: BR1 agonist treatment, 1 week post 3-VO (FIG. 6)
# Procedure: Pharmacological modulation of arteriogenesis was analyzed using a 3 vessel occlusion (3-VO) model for cerebral arteriogenesis in the rat (Occlusion of both vertebral arteries and one carotid artery). Upon occlusion of three of four blood-supplying arteries to the brain, blood flow is redistributed by the recruitment of collateral pathways such as the posterior cerebral artery to supply the hypoperfusion area with blood. The 3-VO model in the rat has been established since 2003 and is acknowledged as a hypoperfusion model for testing cerebral arteriogenesis (Busch, Buschmann et al. 2003). By using the 3-VO model, relevant therapeutic stimulation of arteriogenesis was shown for instance by the application of GM-CSF (Buschmann, Circulation 2003). Either by inhibition or stimulation of the bradykinin receptor signaling pathways, arteriogenesis was determined and physiological parameters of the brain were tested. […] The characterization of arteriogenesis was carried out via measurement of the artery or blood vessel diameter (posterior cerebral artery-PCA) in addition to via a measurement of the cerebrovascular reactivity (perfusion reserves in the brain). Cerebrovascular anatomy was studied after maximal vasodilation by a modification of the postmortem latex perfusion method of Maeda et al (Maeda, Hata et al. 1998).
# [2] = tested on: cerebrovascular reactivity (perfusion reserves in the brain); test: 3-VO cerebral arteriogenesis model: cerebrovascular reactivity (acetazolamide, laser-doppler); assay type: in vivo; conditions: rat; for cerebrovascular reactivity (CVR), increase in blood flow: three weeks after 3-VO (FIG. 5D)
# Procedure: Pharmacological modulation of arteriogenesis was analyzed using a 3 vessel occlusion (3-VO) model for cerebral arteriogenesis in the rat (Occlusion of both vertebral arteries and one carotid artery). Upon occlusion of three of four blood-supplying arteries to the brain, blood flow is redistributed by the recruitment of collateral pathways such as the posterior cerebral artery to supply the hypoperfusion area with blood. The 3-VO model in the rat has been established since 2003 and is acknowledged as a hypoperfusion model for testing cerebral arteriogenesis (Busch, Buschmann et al. 2003). By using the 3-VO model, relevant therapeutic stimulation of arteriogenesis was shown for instance by the application of GM-CSF (Buschmann, Circulation 2003).
# The characterization of arteriogenesis was carried out via measurement of the artery or blood vessel diameter (posterior cerebral artery—PCA) in addition to via a measurement of the cerebrovascular reactivity (perfusion reserves in the brain). Cerebrovascular anatomy was studied after maximal vasodilation by a modification of the postmortem latex perfusion method of Maeda et al (Maeda, Hata et al. 1998).
# CVR is reduced through selective inhibition of the bradykinin B1 and B2 signaling pathways. Negative CVR values are based on the Steal phenomenon (Kuwabara, Ichiya et al. 1995). (FIG. 5D). Upon increase of the CO2 partial pressure under normal conditions, vessels in the brain are capable of increasing blood flow to around 20% of the normal blood flow. Directly after the 3-VO experiment no cerebrovascular reactivity is detectable anymore. Blood flow recovers within 3 weeks post 3-VO and the perfusion reserve is restored to around 10%.
# Bradykinin receptor 1 [3] = biological target: T1, Bradykinin receptor 1 (Homo sapiens, UniProt P46663); conditions: described as moderate; cited from earlier work
# T1 sequence (P46663 1-353): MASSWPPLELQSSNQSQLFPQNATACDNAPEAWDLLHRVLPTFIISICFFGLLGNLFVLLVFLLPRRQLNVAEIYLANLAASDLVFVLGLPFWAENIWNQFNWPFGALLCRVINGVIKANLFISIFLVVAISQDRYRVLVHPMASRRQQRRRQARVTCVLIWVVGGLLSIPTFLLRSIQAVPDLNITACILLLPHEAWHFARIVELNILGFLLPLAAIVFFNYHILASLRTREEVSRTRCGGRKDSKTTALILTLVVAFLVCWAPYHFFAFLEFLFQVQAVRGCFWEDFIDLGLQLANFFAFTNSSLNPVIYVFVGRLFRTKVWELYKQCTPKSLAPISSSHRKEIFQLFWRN
# [4] = relative to the natural ligand Lys-desArg-bradykinin; cited from earlier work
# Bradykinin receptor 1 [5] = biological target: T1, Bradykinin receptor 1; conditions: described as moderate; cited from earlier work; remark: listed apart in the source
Compound,arteriogenesis (collateral growth) [1],artery diameter changes (posterior cerebral artery) [1],collateral arterial growth [1],"cerebrovascular reactivity (CVR), increase in blood flow [2]",cerebral arteriogenesis [1],cerebral arteriogenesis ([1]; listed as Sar[DPhe8]desArg-bradykinin),"diameter of the posterior cerebral artery (PCA) ([1]; rat, seven days after 3-VO, versus untreated rats after 3-VO (FIG. 6B,C))",cerebrovascular reactivity (CVR) ([2]; 1 week post 3-VO (FIG. 6D)),potency relative to the natural ligand Lys-desArg-bradykinin (Bradykinin receptor 1 [3]) [fold less],susceptibility toward proteolysis [4],affinity relative to the natural ligand Lys-desArg-bradykinin (Bradykinin receptor 1 [5])
"NC(N)=NCCC[C@@H](N)C(=O)N[C@@H](CCCN=C(N)N)C(=O)N1CCC[C@H]1C(=O)N1C[C@H](O)C[C@H]1C(=O)NCC(=O)N[C@@H](Cc1cccs1)C(=O)N[C@@H](CO)C(=O)N1Cc2ccccc2C[C@@H]1C(=O)N1[C@H](C(=O)N[C@@H](CCCN=C(N)N)C(=O)O)C[C@@H]2CCCC[C@@H]21 [HOE-140, icatibant]",inhibited,reduced collateral growth,slightly,no increase in blood flow is detected,,,,,,,
"(Des-Arg^9, Leu^8)-bradykinin [H1960]",inhibited,increase in diameter to a lesser extent than in the untreated controls,strongly reduced,no increase in blood flow is detected,,,,,,,
Sar-[D-Phe8]-des-Arg9-bradykinin [R838],,,,,stimulated therapeutically,therapeutically enhanced,significantly greater,significantly increased,~2,lower susceptibility toward proteolysis,about 11 fold less
